From patent US9410142B2, “Dendrimer-based excipients for the attenuation of protein aggregation” (Massachusetts Institute of Technology, priority 2010, dated 2016)

Tests used:
[1] = target: T1, α-chymotrypsinogen A (aCgn) (Bos taurus, UniProt P00766); assay: DSC denaturation midpoint temperature (Tm) of aCgn; type: physicochemical, Bovine; settings: for dTm/d[3] aCgn denaturation midpoint temperature increment: 1 mg/mL aCgn, 20 mM sodium citrate pH 5, maximum dendrimer 0.2 mol/L; for rate of increase of Tm of aCgn: concentrations less than 0.2 mol/L
Experimental: The thermodynamic stability of aCgn in the presence of the arginine salts was determined by DSC (Microcal VP-Differential Scanning calorimeter located in the Biophysical Instrumentation Facility (BIF) at MIT). Each reading began with a minimum of three buffer-buffer up and down scans (in this case, the buffer also contains the cosolute of interest) to establish a reproducible thermal history followed by a single protein-buffer up scan. aCgn was analyzed at a concentration of 1 mg/mL in a 20 mM sodium citrate pH 5 buffer containing the cosolute of interest and a scan rate of 90° C./hour. The data was analyzed in the MicroCal Origin® plotting software. In the analysis, the last buffer-buffer reference scan was first subtracted from the data and then the data was normalized with respect to the protein concentration, cell volume, and scan rate. The baseline (which was progressed through the peak) was then subtracted from the plot and the denaturation midpoint temperature, Tm, was taken as the temperature at the peak maximum of the unfolding event. For each arginine salt, three concentrations (including zero concentration) were tested and Tm values with respect to cosolute concentration were fitted to a linear trend.
The thermostability of aCgn at 1 mg/mL in the presence of the modified dendrimers was assessed by determining the denaturation midpoint temperature (Tm) from DSC scans, which is a qualitative indicator of how the conformational stability of the protein is perturbed. Ghosh K et al. (2009) Proc Natl Acad Sci USA 106:10649-10654.

[2] = Partial molar volume from density measurements of dendrimer only solutions; type: physicochemical
[3] = target: T1, α-chymotrypsinogen A (aCgn); assay: Preferential interaction with aCgn by vapor pressure osmometry (VPO); type: physicochemical, Bovine; settings: for Γ23/[3] preferential interaction with aCgn: 50 mg/mL aCgn, 20 mM sodium citrate pH 5, maximum dendrimer 0.2 mol/L; for Γexp preferential interaction coefficient of aCgn: 0.17-[…] dendrimer salt, VPO
Experimental: Osmolality measurements were carried out according to the previously described procedure. For improved accuracy, all samples were prepared gravimetrically using a Mettler Toledo balance with a precision of 0.1 mg. Partial molar volume values of the
Stock solutions of both BSA and lysozyme and stock solutions of the cosolutes were each prepared in a 40 mM sodium phosphate buffer, pH 6.0 (aCgn measurements were conducted in 20 mM sodium citrate buffer, pH 3.5 or pH 5.0). Stock solutions of the cosolutes were used so that a series of samples could be easily produced with varying solute concentrations by dilution with water and buffer. The protein stock solutions were further purified by placing the solutions under dialysis for 48 hours at room temperature against two changes of buffer (1 L each). […] To determine the concentration, samples of each stock solution were diluted gravimetrically with water to a final optical density of about 1.0 and the concentration determined spectrophotometrically with a PerkinElmer Lambda 35 UV/Vis spectrometer. It should be noted that the protein stock solutions were stored at 4° C. and used within one week of their preparation.
[formula] A Wescor Vapro® vapor pressure osmometer (model 5520) was used for all osmometry measurements. The instrument was calibrated using 0.1, 0.29, and 1 mol/kg osmolality standards provided by Wescor. Due to slight drifts in the calibration points, the instrument was recalibrated after every four measurements and the thermocouple was cleaned daily using concentrated ammonium hydroxide followed by a rinse with HPLC grade water. […] The data sets for each cosolute included at least 16 individually made solutions (both for the sets with and without the protein). Each sample contained approximately 80 μL of solution (40 μL of diluted cosolute stock solution and 40 μL of the protein stock solution). A minimum of three measurements on each solution were made. If the standard deviation for a particular solution was greater than 2 mmol/kg, more measurements were taken or another sample was prepared. For a given solute, data representing the dependence of osmolality on solute molality were fitted by a quadratic equation, with all fitting parameters floated. Data were weighted by the standard deviation of the individual osmolality measurements for the same solution using the nonlinear fitting program Igor Pro.
To gain further insight into how the modified dendrimer salts inhibit protein-protein interactions, preferential interaction coefficient (Γ23) values at various concentrations were determined, both experimentally via vapor pressure osmometry (VPO) measurements and computationally via MD simulations. The experimental results for the interaction between modified generation 0 PAMAM dendrimers and aCgn are expressed in Table 2, which summarizes the polynomial fit and uncertainty of the experimental data. Theoretical preferential interaction coefficient values were computed from the MD simulation using the procedure outlined in our previous work. Baynes B M and Trout B L (2003) J Phys Chem B 107:14058-14067; Shukla D et al. (2009) J Phys Chem B 113:12546-12554.

[4] = target: Concanavalin A (Con A) (Canavalia ensiformis, UniProt P02866); assay: Con A aggregation / shelf-life at pH 6.5 and 37° C.; type: physicochemical; settings: isotonic concentrations, 40 mM sodium phosphate pH 6.5, 37° C., time for 5% loss of protein vs no additive
Experimental: This Shelf-Life Extension Factor was determined by comparing the length of time, t95, for a 5% loss of protein when in the presence of the compounds to the original length of time, t95,0 for a 5% loss. For comparison purposes, isotonic concentrations (as determined by VPO) of the compounds were used and Shelf-Life Extension Factor values for commonly used excipients at isotonic concentrations are shown as well. Shelf-life values of aCgn were determined at 52.5° C. and at 37° C. for Con A.

Structure (SMILES) | dTm/d[3] aCgn denaturation midpoint temperature increment [1] [K * L/mol] | rate of increase of Tm of aCgn [1] [° C.*M^−1] | V0 partial molar volume at infinite dilution [2] [L/mol] | Γ23/[3] preferential interaction with aCgn [3] [mol/mol] | Γexp preferential interaction coefficient of aCgn [3] | Con A t95/t95, 0 (Shelf-Life Extension Factor) ([4]; listed as Dend. 0 Gdm(H2PO4)) | Con A t95/t95, 0 (Shelf-Life Extension Factor) ([4]; listed as phosphate form) | Con A t95/t95, 0 (Shelf-Life Extension Factor) [4]
N=C(N)NCCNC(=O)CCN(CCC(=O)NCCNC(=N)N)CCN(CCC(=O)NCCNC(=N)N)CCC(=O)NCCNC(=N)N.O=P(O)(O)O.O=P(O)(O)O.O=P(O)(O)O.O=P(O)(O)O.O=P(O)(O)O.O=P(O)(O)O [Gdm(H2PO4)] | 37.4 | 37.4 | 0.7254 | −15.8 ± 5.0 | −2.9 | 1.6 | minimal improvement | –
N=C(N)NCCNC(=O)CCN(CCC(=O)NCCNC(=N)N)CCN(CCC(=O)NCCNC(=N)N)CCC(=O)NCCNC(=N)N.O=S(=O)(O)O.O=S(=O)(O)O.O=S(=O)(O)O [Gdm(SO4)1/2] | 15.2 | 15.2 | 0.5665 | −17.0 ± 4.4 | −3.1 | – | – | 5.9
